Assay results from article PMC10874388, “Cyclic peptides discriminate BCL-2 and its clinical mutants from BCL-XL by engaging a single-residue discrepancy” (Nature Communications, 2024).
Several values for one entry are separate records, joined by “and”; a condition that tells them apart may be missing. Equal entries are not always repeated.

How the values were obtained:
Format in all cases: cell-based
Jurkat cells = experiment: Cell viability assay (CellTiter-Glo), Jurkat; settings: for inhibition relative to 0 uM control, replicates / raw viability signal, replicates: listed as ABT199
Method in brief: (§1)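 Compounds added in serum-free medium for 4 h (RS4:11: 6 h), then FBS brought to 10% and incubation continued to 24 h or 48 h total at 37 °C, 5% CO2. Viability by CellTiter-Glo 2.0 luminescence; IC50 calculated.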

Daudi cells = experiment: Cell viability assay (CellTiter-Glo), Daudi; settings: for IC50: 48 h treatment, CellTiter-Glo; for inhibition relative to 0 uM control, replicates / raw viability signal, replicates: listed as ABT199
Method in brief: as §1

A549 cells (control) = experiment: Cell viability assay (CellTiter-Glo), normal A549 (control); settings: for luminescence reading, everage: mean of 6 wells
Method: The cell lines Jurkat (TIB-152), El4 (TIB-39), Daudi (ccl-213), RS4:11 (crl-1873), A549 (ccl-185), HepG2 (hb-8065) and PANC-1 (crl-1469) were purchased from ATCC (American Type Culture Collection), and MGC-803 (C6582) was purchased from Beyotime (https://www.beyotime.com/product/C6582.htm). […] Daudi and RS4:11 cells were cultured in RPMI-1640 medium (HyClone, SH30809.01) and 10% FBS (Gibco, 10099-141), whereas HepG2, MGC-803 and PANC-1 cells were cultured in MDEM (HyClone, SH30243.01). Cells were maintained at 37 °C under a humidified, 5% (v/v) CO2-containing atmosphere.
Cell viability was measured using CellTiter-Glo® 2.0 Reagent (Promega, G9242). […] After different inhibitors were added into serum-free medium and cultured for 4 h (RS4:11 for 6 h), FBS were supplemented to 10% and then incubated totally for 24 h or 48 h. Finally, the IC50 values were calculated based on measurements using a microplate reader (Thermo, Varioskan LUX). Statistical analysis was performed using software GraphPad Prism 7.0.

[1] = control A549, ABT-199 0.390625 uM
[2] = control A549, ABT-199 0.78125 uM
[3] = control A549, ABT-199 1.5625 uM

CC1(C)CCC(CN2CCN(c3ccc(C(=O)NS(=O)(=O)c4ccc(NCC5CCOCC5)c([N+](=O)[O-])c4)c(Oc4cnc5[nH]ccc5c4)c3)CC2)=C(c2ccc(Cl)cc2)C1 [venetoclax]
inhibition relative to 0 uM control, replicates (Jurkat cells; 0.09375 uM): 3.52% and 1.46% and 6% and 5% (2×) and 2.56%
raw viability signal, replicates (Jurkat cells; 0.09375 uM): 1920000 and 1961000 and 1868000 and 1890000 and 1939000 and 1891000
inhibition relative to 0 uM control, replicates (Jurkat cells; 0.1875 uM): 17% and 21% (2×) and 20% (2×)
raw viability signal, replicates (Jurkat cells; 0.1875 uM): 1613000 and 1643000 and 1579000 and 1582000 and 1598000 and 1590000
inhibition relative to 0 uM control, replicates (Jurkat cells; 0.375 uM): 36% and 31% and 32% and 27% and 22% and 17%
raw viability signal, replicates (Jurkat cells; 0.375 uM): 1276000 and 1374000 and 1347000 and 1456000 and 1547000 and 1657000
inhibition relative to 0 uM control, replicates (Jurkat cells; 0.75 uM): 38% and 41% and 36% and 33% and 32%
raw viability signal, replicates (Jurkat cells; 0.75 uM): 1124000 and 1225000 and 1165000 and 1278000 and 1326000 and 1356000
inhibition relative to 0 uM control, replicates (Jurkat cells; 1.5 uM): 52% and 54% (2×) and 53% and 47%
raw viability signal, replicates (Jurkat cells; 1.5 uM): 903200 and 948100 and 908900 and 906300 and 926500 and 1061000
inhibition relative to 0 uM control, replicates (Jurkat cells; 3 uM): 86% (3×) and 87% (2×)
raw viability signal, replicates (Jurkat cells; 3 uM): 248500 and 275900 and 263600 and 270200 and 263000 and 279700
inhibition at 0.1875 µM (Jurkat cells; Homo sapiens, 0.1875 uM, read-out: inhibition relative to 0 uM control, replicates): 19%
inhibition at 0.75 µM (Jurkat cells; Homo sapiens, 0.75 uM, read-out: inhibition relative to 0 uM control, replicates): 44%
inhibition at 1.5 µM (Jurkat cells; Homo sapiens, 1.5 uM, read-out: inhibition relative to 0 uM control, replicates): 55%
inhibition at 3 µM (Jurkat cells; Homo sapiens, 3 uM, read-out: inhibition relative to 0 uM control, replicates): 88%
IC50 (Jurkat cells; Homo sapiens, 48 h treatment, CellTiter-Glo): 1.2 ± 0.2 µM
IC50 (Daudi cells): 9.1 ± 0.4 µM
inhibition relative to 0 uM control, replicates (Daudi cells; Daudi, 0.78125 uM): -8% and 9% and -10% and 0.517% and -5.68% and 2.67%
raw viability signal, replicates (Daudi cells; Daudi, 0.78125 uM): 1603 and 1350 and 1637 and 1476 and 1568 and 1444
inhibition relative to 0 uM control, replicates (Daudi cells; Daudi, 1.5625 uM): 2.61% and -1.71% and 13% and -2.52% and -11% and 4.63%
raw viability signal, replicates (Daudi cells; Daudi, 1.5625 uM): 1445 and 1509 and 1291 and 1521 and 1645 and 1415
inhibition relative to 0 uM control, replicates (Daudi cells; Daudi, 3.125 uM): 2% and 16% (2×) and 13% and 9% and 19%
raw viability signal, replicates (Daudi cells; Daudi, 3.125 uM): 1454 and 1252 and 1287 and 1241 and 1349 and 1200
inhibition relative to 0 uM control, replicates (Daudi cells; Daudi, 6.25 uM): 29% and 42% and 9% and 30% and 46% and 26%
raw viability signal, replicates (Daudi cells; Daudi, 6.25 uM): 1056 and 861.7 and 1353 and 1036 and 800.8 and 1094
inhibition relative to 0 uM control, replicates (Daudi cells; Daudi, 12.5 uM): 77% and 57% and 48% and 71% and 73% and 72%
raw viability signal, replicates (Daudi cells; Daudi, 12.5 uM): 335.5 and 640.9 and 766.9 and 436.4 and 400.1 and 410.0
inhibition relative to 0 uM control, replicates (Daudi cells; Daudi, 25 uM): 93% (2×) and 70% and 85% and 88% and 97%
raw viability signal, replicates (Daudi cells; Daudi, 25 uM): 106.6 and 104.3 and 439.1 and 228.2 and 183.6 and 51.32
IC50 (Daudi cells; Homo sapiens, Daudi, 48 h): 9.12 µM
average (raw viability reading) (A549 cells (control); A549, ABT199 0.3125 uM): 403300
inhibition rate (A549 cells (control); A549, ABT199 0.3125 uM, fraction, replicates): 0.1384 and 0.2199 and 0.2562 and 0.2483 and 0.2515 and 0.3247
raw viability reading (A549 cells (control); A549, ABT199 0.3125 uM, replicates): 394600 and 398800 and 397100 and 358300 and 457100 and 413900
average (raw viability reading) (A549 cells (control); A549, ABT199 0.625 uM): 437733
inhibition rate (A549 cells (control); A549, ABT199 0.625 uM, fraction, replicates): 0.1102 and 0.1614 and 0.1995 and 0.1861 and 0.1882 and 0.2042
raw viability reading (A549 cells (control); A549, ABT199 0.625 uM, replicates): 424700 and 431800 and 430700 and 422200 and 472100 and 444900
average (raw viability reading) (A549 cells (control); A549, ABT199 1.25 uM): 415750
inhibition rate (A549 cells (control); A549, ABT199 1.25 uM, fraction, replicates): 0.1437 and 0.2152 and 0.2434 and 0.2293 and 0.2263 and 0.2404
raw viability reading (A549 cells (control); A549, ABT199 1.25 uM, replicates): 401400 and 408900 and 410500 and 403000 and 454300 and 416400
average (raw viability reading) (A549 cells (control); A549, ABT199 2.5 uM): 279550
inhibition rate (A549 cells (control); A549, ABT199 2.5 uM, fraction, replicates): 0.4238 and 0.4647 and 0.4862 and 0.4847 and 0.4854 and 0.4937
raw viability reading (A549 cells (control); A549, ABT199 2.5 uM, replicates): 272600 and 273400 and 273000 and 268600 and 305700 and 284000
average (raw viability reading) (A549 cells (control); A549, ABT199 5 uM): 231967
inhibition rate (A549 cells (control); A549, ABT199 5 uM, fraction, replicates): 0.5341 and 0.5546 and 0.5723 and 0.5614 and 0.5684 and 0.5859
raw viability reading (A549 cells (control); A549, ABT199 5 uM, replicates): 226900 and 232700 and 229000 and 219700 and 247200 and 236300
average (raw viability reading) (A549 cells (control); A549, ABT199 10 uM): 181100
inhibition rate (A549 cells (control); A549, ABT199 10 uM, fraction, replicates): 0.6325 and 0.6605 and 0.666 and 0.6628 and 0.6649 and 0.6653
raw viability reading (A549 cells (control); A549, ABT199 10 uM, replicates): 177200 and 178900 and 177800 and 177600 and 195000 and 180100
average (raw viability reading) (A549 cells (control); A549, ABT199 20 uM): 174683
inhibition rate (A549 cells (control); A549, ABT199 20 uM, fraction, replicates): 0.6679 and 0.6686 and 0.6762 and 0.6713 and 0.6664 and 0.6741
raw viability reading (A549 cells (control); A549, ABT199 20 uM, replicates): 171800 and 174400 and 177000 and 172900 and 176200 and 175800
inhibition at 0.390625 µM (A549 cells (control); Homo sapiens, A549, control A549, ABT-199 0.390625 uM, replicate wells, read-out: inhibition rate): 26%
inhibition at 0.78125 µM (A549 cells (control); Homo sapiens, A549, control A549, ABT-199 0.78125 uM, replicate wells, read-out: inhibition rate): 33%
inhibition at 1.5625 µM (A549 cells (control); Homo sapiens, A549, control A549, ABT-199 1.5625 uM, replicate wells, read-out: inhibition rate): 61%
inhibition at 3.125 µM (A549 cells (control); Homo sapiens, A549, control A549, ABT-199 3.125 uM, replicate wells, read-out: inhibition rate): 75%
inhibition at 6.25 µM (A549 cells (control); Homo sapiens, A549, control A549, ABT-199 6.25 uM, replicate wells, read-out: inhibition rate): 76%
inhibition at 12.5 µM (A549 cells (control); Homo sapiens, A549, control A549, ABT-199 12.5 uM, replicate wells, read-out: inhibition rate): 81%
inhibition at 25 µM (A549 cells (control); Homo sapiens, A549, control A549, ABT-199 25 uM, replicate wells, read-out: inhibition rate): 87%
inhibition at 50 µM (A549 cells (control); Homo sapiens, A549, control A549, ABT-199 50 uM, replicate wells, read-out: inhibition rate): 93%
inhibition at 100 µM (A549 cells (control); Homo sapiens, A549, control A549, ABT-199 100 uM, replicate wells, read-out: inhibition rate): 98%
inhibition at 200 µM (A549 cells (control); Homo sapiens, A549, control A549, ABT-199 200 uM, replicate wells, read-out: inhibition rate): 99%
IC50 (A549 cells (control); Homo sapiens, A549, 48 h, CellTiter-Glo, n = 6, read-out: IC50 A549 control (original cells)): 1.1 ± 0.2 µM
luminescence reading (raw, replicate wells) (A549 cells (control); [1]): 589100 and 474500 and 578500 and 498700 and 513300 and 511200
luminescence reading, everage (A549 cells (control); [1]): 527550
inhibition rate (A549 cells (control); control A549, ABT-199 0.390625 uM, replicate wells): 40% and 27% and 37% and 35% and 36%
luminescence reading (raw, replicate wells) (A549 cells (control); [2]): 528700 and 466700 and 517300 and 470700 and 495500 and 475500
luminescence reading, everage (A549 cells (control); [2]): 492400
inhibition rate (A549 cells (control); control A549, ABT-199 0.78125 uM, replicate wells): 41% and 35% and 38% and 40%
luminescence reading (raw, replicate wells) (A549 cells (control); [3]): 312000 and 314300 and 298800 and 314500 and 309000 and 290800
luminescence reading, everage (A549 cells (control); [3]): 306567
inhibition rate (A549 cells (control); control A549, ABT-199 1.5625 uM, replicate wells): 60% and 62% and 63%
luminescence reading (raw, replicate wells) (A549 cells (control); control A549, ABT-199 3.125 uM): 198800 and 204700 and 191700 and 191900 and 189900 and 188800
luminescence reading, everage (A549 cells (control); control A549, ABT-199 3.125 uM): 194300
inhibition rate (A549 cells (control); control A549, ABT-199 3.125 uM, replicate wells): 74%
luminescence reading (raw, replicate wells) (A549 cells (control); control A549, ABT-199 6.25 uM): 186800 and 193000 and 186700 and 177700 and 179700 and 186500
luminescence reading, everage (A549 cells (control); control A549, ABT-199 6.25 uM): 185067
